Experimental findings from patent US20160031855A1, “PROTEIN KINASE INHIBITORS” (ORION CORPORATION, priority 2013, published 2016) are described below.

pIC50: −log10 of the molar value. Structures can show the parent of a compound that is named as a salt.

The test deals with T1, FGFR1 kinase (Homo sapiens, UniProt P11362).
T1 construct: purchased Upstate, USA
Kind of test: TR-FRET assay with FGFR1 kinase. In kind it is biochemical. The note with it: 13 μM ATP; for pIC50: dose response, read-out: IC50 of FGFR1 inhibition; for inhibition at 1 µM / Inhibition (%) of FGFR1 at 1000 nM: compound at 1000 nM. How it is done: 1. Inhibition of FGFR1 kinase
Compounds were screened in the TR-FRET assay with FGFR1 kinase. 5 ng of FGFR1 [Upstate, USA] kinase was used for assay. The compound was incubated with the kinase for 30 minutes at room temperature. After the incubation, substrate mix [40 nM Ultra light poly GT (Perkin Elmer, USA) and 13 μM ATP (Sigma)] was added. The above reaction was stopped by the addition of 40 mM EDTA after the 30 min kinase reaction. The Eu-labelled antiphospho-tyrosine antibody [Perkin Elmer, USA] was added at 0.5 nM and the fluorescence emission at 615 nm/665 nm [excitation at 340 nm] was measured. The compounds were initially screened at 100 nM and 1 μM concentrations. The compounds with >50% inhibition at 100 nM of FGFR1 were taken for the full dose response studies. The final DMSO concentration in the assay was 1%. For IC50 determination, ⅓^rd serial dilution was made from the 20 mM DMSO stock solution. 2 μl of these were transferred to the test wells containing […] of the reaction mixture [total reaction volume 20 μl]. The fluorescence was measured in Perkin Elmer Wallac 1420 Multilabel Counter Victor 3. The IC50 was determined by fitting the dose response data to sigmoidal curve fitting equation using GraphPad Prism software V5.

T1 sequence (P11362 22-822): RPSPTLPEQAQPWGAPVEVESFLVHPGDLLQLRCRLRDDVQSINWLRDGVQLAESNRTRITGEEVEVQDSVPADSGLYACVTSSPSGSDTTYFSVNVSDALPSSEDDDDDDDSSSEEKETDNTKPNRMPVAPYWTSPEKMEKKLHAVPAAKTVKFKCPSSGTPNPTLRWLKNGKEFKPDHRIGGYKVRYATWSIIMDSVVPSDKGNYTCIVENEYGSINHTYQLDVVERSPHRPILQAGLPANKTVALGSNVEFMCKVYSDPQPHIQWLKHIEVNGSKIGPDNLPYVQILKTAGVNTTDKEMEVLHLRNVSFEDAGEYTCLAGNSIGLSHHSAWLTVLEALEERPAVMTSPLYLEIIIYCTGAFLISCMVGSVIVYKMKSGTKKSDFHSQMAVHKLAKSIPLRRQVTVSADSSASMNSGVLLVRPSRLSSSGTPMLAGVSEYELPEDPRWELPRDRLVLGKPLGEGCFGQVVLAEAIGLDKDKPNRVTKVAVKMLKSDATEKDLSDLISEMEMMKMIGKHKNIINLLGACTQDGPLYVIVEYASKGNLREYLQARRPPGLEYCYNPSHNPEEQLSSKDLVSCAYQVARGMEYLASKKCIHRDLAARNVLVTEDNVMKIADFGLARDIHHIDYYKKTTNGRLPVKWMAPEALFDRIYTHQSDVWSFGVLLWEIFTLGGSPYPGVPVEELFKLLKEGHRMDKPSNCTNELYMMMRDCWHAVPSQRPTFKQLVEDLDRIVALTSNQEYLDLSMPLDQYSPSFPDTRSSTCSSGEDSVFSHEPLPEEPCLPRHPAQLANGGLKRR

For orientation: pIC50 means −log10 of the IC50, conventionally taken in molar units. As usually defined, the inhibition is the percentage by which the read-out fell short of the control. Regarding `Cn1cc(-c2ccc3c(c2)ncn3-c2cc(-c3ccc(F)cc3F)cc(Nc3ccn(C)n3)n2)cn1` [Example 1, 4-(2,4-Difluorophenyl)-N-(1-methyl-1H-pyrazol-3-yl)-6-(5-(1-methyl-1H-pyrazol-4-yl)-1H-benzo[d]imidazol-1-yl)pyridin-2-amine], the pIC50 is 7.78 and at 1 µM the inhibition was 97%.
Regarding `Cn1cc(-c2ccc3c(c2)ncn3-c2cc(-c3ccc(F)cc3F)cc(NS(=O)(=O)C3CC3)n2)cn1` [Example 2 (imido), Sodium salt of imido form of N-(4-(2,4-difluorophenyl)-6-(5-(1-methyl-1H-pyrazol-4-yl)-1H-benzo[d]imidazol-1-yl)pyridin-2-yl)cyclopropanesulfonamide], the pIC50 is 8.48 and the “Inhibition (%) of FGFR1 at 1000 nM” value was found to be 97%.
Consider `Cn1cc(-c2ccc3c(c2)ncn3-c2cc(-c3ccc(F)cc3F)cc(NS(=O)(=O)C3CC3)n2)cn1` [Example 2, N-(4-(2,4-difluorophenyl)-6-(5-(1-methyl-1H-pyrazol-4-yl)-1H-benzo[d]-imidazol-1-yl)pyridin-2-yl)cyclopropanesulfonamide], for which the pIC50 is 8.41 and the inhibition at 1 µM stood at 99%.
As for `Cn1cc(-c2ccc3c(c2)ncn3-c2cc(-c3ccc(F)cc3F)cc(NS(C)(=O)=O)n2)cn1` [Example 4, N-(4-(2,4-difluorophenyl)-6-(5-(1-methyl-1H-pyrazol-4-yl)-1H-benzo[d]-imidazol-1-yl)pyridin-2-yl)methanesulfonamide], the pIC50 is 8.37 and the inhibition at 1 µM turned out to be 98%.
For the molecule `CCS(=O)(=O)Nc1cc(-c2ccc(F)cc2F)cc(-n2cnc3cc(-c4cnn(C)c4)ccc32)n1` [Example 5 (imido), Sodium salt of imido form of N-(4-(2,4-difluorophenyl)-6-(5-(1-methyl-1H-pyrazol-4yl)-1H-benzo[d]imidazol-1-yl)pyridin-2-yl)ethanesulfonamide], the pIC50 was 8.36 and the “Inhibition (%) of FGFR1 at 1000 nM” value came out at 98%.
For `CCS(=O)(=O)Nc1cc(-c2ccc(F)cc2F)cc(-n2cnc3cc(-c4cnn(C)c4)ccc32)n1` [Example 5, N-(4-(2,4-difluorophenyl)-6-(5-(1-methyl-1H-pyrazol-4-yl)-1H-benzo[d]-imidazol-1-yl)pyridin-2-yl)ethanesulfonamide], the pIC50 was 8.96 and testing at 1 µM gave an inhibition of 99%.
In the case of `CC(C)S(=O)(=O)Nc1cc(-c2ccc(F)cc2F)cc(-n2cnc3cc(-c4cnn(C)c4)ccc32)n1` [Example 6 (imido), Imido form of N-(4-(2,4-difluorophenyl)-6-(5-(1-methyl-1H-pyrazol-4-yl)-1H-benzo[d]imidazol-1-yl)pyridin-2-yl)propane-2-sulfonamide], the pIC50 was 8.77 and the “Inhibition (%) of FGFR1 at 1000 nM” value was determined as 98%.
Consider `CC(C)S(=O)(=O)Nc1cc(-c2ccc(F)cc2F)cc(-n2cnc3cc(-c4cnn(C)c4)ccc32)n1` [Example 6, N-(4-(2,4-difluorophenyl)-6-(5-(1-methyl-1H-pyrazol-4-yl)-1H-benzo[d]-imidazol-1-yl)pyridin-2-yl)propane-2-sulfonamide], for which the pIC50 was 8.77 and 1 µM produced 99% inhibition.
Turning to `Cn1cc(-c2ccc3c(c2)ncn3-c2cc(-c3ccccc3F)cc(NS(=O)(=O)C3CC3)n2)cn1` [Example 8 (imido), Sodium salt of imido form of N-(4-(2-fluorophenyl)-6-(5-(1-methyl-1H-pyrazol-4-yl)-1H-benzo[d]imidazol-1-yl)pyridin-2-yl)cyclopropanesulfonamide], the pIC50 was 8.48 and the “Inhibition (%) of FGFR1 at 1000 nM” value worked out at 97%.
For the molecule `Cn1cc(-c2ccc3c(c2)ncn3-c2cc(-c3ccccc3F)cc(NS(=O)(=O)C3CC3)n2)cn1` [Example 8, N-(4-(2-fluorophenyl)-6-(5-(1-methyl-1H-pyrazol-4-yl)-1H-benzo[d]imidazol-1-yl)pyridin-2-yl)cyclopropanesulfonamide], the pIC50 was 8.27 and at 1 µM the inhibition was 99%.
For `Cn1cc(-c2ccc3c(c2)ncn3-c2cc(-c3ccccc3F)cc(NS(C)(=O)=O)n2)cn1` [Example 10, N-(4-(2-fluorophenyl)-6-(5-(1-methyl-1H-pyrazol-4-yl)-1H-benzo[d]imidazol-1-yl)pyridin-2-yl)methanesulfonamide], in that order: 8.24 and 97%.
As to `CCS(=O)(=O)Nc1cc(-c2ccccc2F)cc(-n2cnc3cc(-c4cnn(C)c4)ccc32)n1` [Example 11 (imido), Sodium salt of imido form of N-(4-(2-fluorophenyl)-6-(5-(1-methyl-1H-pyrazol-4-yl)-1H-benzo[d]imidazol-1-yl)pyridin-2-yl)ethanesulfonamide], the pIC50 is 8.49 and the “Inhibition (%) of FGFR1 at 1000 nM” value is 98%.
In the case of `CCS(=O)(=O)Nc1cc(-c2ccccc2F)cc(-n2cnc3cc(-c4cnn(C)c4)ccc32)n1` [Example 11, N-(4-(2-fluorophenyl)-6-(5-(1-methyl-1H-pyrazol-4-yl)-1H-benzo[d]imidazol-1-yl)pyridin-2-yl)ethanesulfonamide], the pIC50 was 8.55 and the inhibition at 1 µM came to 98%.
Take `CC(C)S(=O)(=O)Nc1cc(-c2ccccc2F)cc(-n2cnc3cc(-c4cnn(C)c4)ccc32)n1` [Example 12 (imido), Sodium salt of imido form of N-(4-(2-fluorophenyl)-6-(5-(1-methyl-1H-pyrazol-4-yl)-1H-benzo[d]imidazol-1-yl)pyridin-2-yl)propane-2-sulfonamide]: the pIC50 was 8.28 and the “Inhibition (%) of FGFR1 at 1000 nM” value was 99%.
Turning to `CC(C)S(=O)(=O)Nc1cc(-c2ccccc2F)cc(-n2cnc3cc(-c4cnn(C)c4)ccc32)n1` [Example 12, N-(4-(2-fluorophenyl)-6-(5-(1-methyl-1H-pyrazol-4-yl)-1H-benzo[d]imidazol-1-yl)pyridin-2-yl)propane-2-sulfonamide], the pIC50 is 8.82 and the inhibition at 1 µM came out at 97%.
The like results for `Cn1cc(-c2ccc3c(c2)ncn3-c2cc(-c3ccc(F)cc3)cc(NS(=O)(=O)C3CC3)n2)cn1` [Example 14] were, in that order, 7.84 and 98%.
For `Cn1cc(-c2ccc3c(c2)ncn3-c2cc(-c3ccc(F)cc3)cc(NS(C)(=O)=O)n2)cn1` [Example 16, N-(4-(4-fluorophenyl)-6-(5-(1-methyl-1H-pyrazol-4-yl)-1H-benzo[d]imidazol-1-yl)pyridin-2-yl)methanesulfonamide], in that order: 8.47 and 97%.
`CC(C)S(=O)(=O)Nc1cc(-c2ccc(F)cc2)cc(-n2cnc3cc(-c4cnn(C)c4)ccc32)n1` [Example 17 (imido), Sodium salt of imido form: of N-(4-(4-fluorophenyl)-6-(5-(1-methyl-1H-pyrazol-4-yl)-1H-benzo[d]imidazol-1-yl)pyridin-2-yl)propane-2-sulfonamide]: the pIC50 was 8.28 and the “Inhibition (%) of FGFR1 at 1000 nM” value is recorded as 97%.
For the molecule `CC(C)S(=O)(=O)Nc1cc(-c2ccc(F)cc2)cc(-n2cnc3cc(-c4cnn(C)c4)ccc32)n1` [Example 17, N-(4-(4-fluorophenyl)-6-(5-(1-methyl-1H-pyrazol-4-yl)-1H-benzo[d]imidazol-1-yl)pyridin-2-yl)propane-2-sulfonamide], the pIC50 was 8.34 and 1 µM produced 96% inhibition.
`Cn1cc(-c2ccc3c(c2)ncn3-c2cc(-c3ncccc3F)cc(NS(=O)(=O)C3CC3)n2)cn1` [Example 18, N-(3-fluoro-6′-(5-(1-methyl-1H-pyrazol-4-yl)-1H-benzo[d]imidazol-1-yl)-[2,4′-bipyridin]-2-yl)cyclopropanesulfonamide]: the pIC50 was 8.30 and the “Inhibition (%) of FGFR1 at 1000 nM” value was determined as 97%.
With `CC(=O)Nc1cc(-c2ncccc2F)cc(-n2cnc3cc(-c4cnn(C)c4)ccc32)n1` [Example 19, N-(3-fluoro-6′-(5-(1-methyl-1H-pyrazol-4-yl)-1H-benzo[d]imidazol-1-yl)-[2,4′-bipyridin]-2′-yl)acetamide], the pIC50 is 7.55 and at 1 µM the inhibition was 96%.
The like results for `CN(C)CCn1cc(-c2ccc3c(c2)ncn3-c2cc(-c3ccc(F)cc3F)cc(NS(=O)(=O)C3CC3)n2)cn1` [Example 21, N-(4-(2,4-difluorophenyl)-6-(5-(1-(2-(dimethylamino)ethyl)-1H-pyrazol-4-yl)-1H-benzo[d]imidazol-1-yl)pyridin-2-yl)cyclopropanesulfonamide] were, in that order, 8.43 and 99%.
For the molecule `Cn1cc(-c2ccc3c(c2)ncn3-c2cc(-c3ccccc3F)nc(NS(=O)(=O)C3CC3)n2)cn1` [Example 22, N-(4-(2-fluorophenyl)-6-(5-(1-methyl-1H-pyrazol-4-yl)-1H-benzo[d]imidazol-1-yl)pyrimidin-2-yl)cyclopropanesulfonamide], the pIC50 is 8.04 and 1 µM produced 97% inhibition.
For `O=S(=O)(Nc1cc(-c2ccc(F)cc2F)cc(-n2cnc3cc(-n4cccn4)ccc32)n1)C1CC1` [Example 23, N-(6-(5-(1H-pyrazol-1-yl)-1H-benzo[d]imidazol-1-yl)-4-(2,4-difluorophenyl)-pyridin-2-yl)cyclopropanesulfonamide], in that order: 8.00 and 97%.
